Five molecules from PMC11172786, “Melatonin-Regulated Chaperone Binding Protein Plays a Key Role in Cadmium Stress Tolerance in Rice, Revealed by the Functional Characterization of a Novel Serotonin N-Acetyltransferase 3 (SNAT3) in Rice” (International Journal of Molecular Sciences, 2024) can be followed below.

One series concerns the target T1, OsSNAT3 (OsSNAT3-His6) (Oryza sativa, UniProt B7F8K4).
T1 construct: cDNA-derived N-terminus MGAGEG, C-terminus QAATKK
T1 sequence (B7F8K4 1-179): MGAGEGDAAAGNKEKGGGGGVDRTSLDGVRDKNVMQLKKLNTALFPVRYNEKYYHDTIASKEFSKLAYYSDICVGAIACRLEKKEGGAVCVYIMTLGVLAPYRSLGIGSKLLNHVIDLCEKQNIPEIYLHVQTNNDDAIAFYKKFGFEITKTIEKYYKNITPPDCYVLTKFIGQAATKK
Description: inhibition of serotonin N-acetylation, HPLC. The class given is biochemical. The note with it: 0.5 mM serotonin and 0.5 mM amine, pH 8.8, 55 °C; possible alternative substrate; tag form not stated for this figure.

Substrate in series [1]: NCCc1c[nH]c2ccc(O)cc12
Description: HPLC detection of N-acetylserotonin, Lineweaver-Burk. The class given is biochemical, Oryza sativa. The note with it: 0.5 mM acetyl-CoA, 100 mM potassium phosphate pH 8.8, 45 °C.

Substrate in series [2]: COc1ccc2[nH]cc(CCN)c2c1
Description: HPLC detection of melatonin, Lineweaver-Burk. The class given is biochemical, Oryza sativa. Particulars: 0.5 mM acetyl-CoA, 100 mM potassium phosphate pH 8.8, 45 °C.

For the molecule `NCCc1ccc(O)c(O)c1` [dopamine], the “SNAT activity with 0.5 mM amine” value on OsSNAT3 (OsSNAT3-His6) was “significantly inhibited by putrescine and dopamine”.

Turning to `NC[C@H](O)c1ccc(O)cc1` [octopamine], the “SNAT activity with 0.5 mM amine” value at OsSNAT3 (OsSNAT3-His6) was “OsSNAT3 activity was strongly inhibited by spermidine and octopamine (Figure 3C)”.

As for `NCCCCN` [putrescine], the “SNAT activity with 0.5 mM amine” value on OsSNAT3 (OsSNAT3-His6) was “significantly inhibited by putrescine and dopamine”.

Regarding `NCCCCNCCCN` [spermidine], on OsSNAT3 (OsSNAT3-His6), the “SNAT activity with 0.5 mM amine” value was “OsSNAT3 activity was strongly inhibited by spermidine and octopamine (Figure 3C)”.

B1: OsSNAT3 (OsSNAT3-His6) (Oryza sativa Japonica Group) (protein)
chain: T1 sequence (B7F8K4 1-179)
notes: cDNA-derived N-terminus MGAGEG, C-terminus QAATKK
For orientation: Km means the concentration of substrate that gives half-maximal velocity. Consider B1, for which the Michaelis constant (Km) worked out at 1152 µM in series [1] and 1587 µM in series [2].
